Broadly, the IC50 is the concentration that gives 50% inhibition.

Experimental findings from US12673924B2, “Valiolamine derivatives as glucosidase inhibitors” (Emergent Product Development Gaithersburg Inc., priority 2021, dated 2026) are described below.

Common to all, as to type: biochemical
The target of one assay is T1, recombinant human GBA (Homo sapiens, UniProt P04062).
T1 construct: purchased
T1 sequence (P04062 40-536): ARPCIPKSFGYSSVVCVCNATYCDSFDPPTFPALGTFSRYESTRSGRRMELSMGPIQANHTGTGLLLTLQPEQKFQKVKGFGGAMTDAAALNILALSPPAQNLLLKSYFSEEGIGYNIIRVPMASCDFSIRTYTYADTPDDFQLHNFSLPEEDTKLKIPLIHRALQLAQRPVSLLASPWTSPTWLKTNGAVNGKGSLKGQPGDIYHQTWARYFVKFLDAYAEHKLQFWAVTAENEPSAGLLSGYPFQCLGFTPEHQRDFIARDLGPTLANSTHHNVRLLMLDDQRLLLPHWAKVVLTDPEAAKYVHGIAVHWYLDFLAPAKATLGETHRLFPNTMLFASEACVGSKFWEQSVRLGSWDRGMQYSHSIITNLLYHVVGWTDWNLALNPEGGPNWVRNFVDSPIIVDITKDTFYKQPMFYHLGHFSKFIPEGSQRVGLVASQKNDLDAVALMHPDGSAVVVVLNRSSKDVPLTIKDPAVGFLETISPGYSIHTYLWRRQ
Description: Beta-glucocerebrosidase (GBA) inhibition assay. Conditions: 4-methylumbelliferyl-beta-D-pyranoside substrate, 4-PL curve fit. The protocol: Beta-glucocerebrosidase (GBA, also referred to glucosylceramidase): To analyze inhibitory effects of a test compound, commercially available recombinant human GBA was incubated with multiple dilutions of test compound for 60 minutes at 37° C. 4-methylumbelliferyl-beta-D-pyranoside was then introduced to the mixture as substrate. Following incubation for 60 minutes at 37° C., 1,4-methyllumbelliferone was generated, and the reaction was stopped with the stop solution (0.5 M glycine; 0.3 M NaOH, pH 10). 1,4-methyllumbelliferone was detected by fluorescence (excitation at 365 nm, emission at 440 nm). Relative fluorescence is compared to untreated enzymatic activity and test compound concentration is then plotted as a function of percent inhibition. The IC50 was determined using a 4-PL curve fit as the measure of relative inhibitory activity of each test compound (see Table 4).

Another assay deals with rat maltase. Description: Intestinal alpha-glucosidase assay, maltose substrate. The settings on record: alpha-glucosidase from intestinal rat powder. The protocol:
(§1) Intestinal alpha-glucosidases (rat maltase and sucrase): Intestinal alpha-glucosidases act upon 1,4-alpha-glucoside bonds, breaking down disaccharides to glucose. To perform this assay, partially purified alpha-glucosidase from intestinal rat powder was incubated for 60 minutes at 37° C. with multiple dilutions of test compounds. Maltose or Sucrose respectively was then introduced as substrate to the mixture and incubated for 30 minutes at 37° C. The reaction was stopped by a 5-minute incubation at 90° C. and the resultant glucose production is detected using Sigma's Glucose GO Kit. Percent inhibition was then plotted as a function of concentration for each test compound. The IC50 was determined using a 4-PL curve fit and serves as the measure of relative inhibition of each test compound (see Table 4). Table 4 summarizes the results of IC50s for each molecule against each tested glucosidase enzyme.

The target in a further assay is T2, rat sucrase (Rattus norvegicus, UniProt P23739).
T2 construct: partially purified alpha-glucosidase from intestinal rat powder; from tissue; host or cells: rat intestinal powder
Put plainly: Intestinal alpha-glucosidase assay, sucrose substrate. The settings on record: alpha-glucosidase from intestinal rat powder. The protocol: as §1

T2 sequence (P23739 whole entry): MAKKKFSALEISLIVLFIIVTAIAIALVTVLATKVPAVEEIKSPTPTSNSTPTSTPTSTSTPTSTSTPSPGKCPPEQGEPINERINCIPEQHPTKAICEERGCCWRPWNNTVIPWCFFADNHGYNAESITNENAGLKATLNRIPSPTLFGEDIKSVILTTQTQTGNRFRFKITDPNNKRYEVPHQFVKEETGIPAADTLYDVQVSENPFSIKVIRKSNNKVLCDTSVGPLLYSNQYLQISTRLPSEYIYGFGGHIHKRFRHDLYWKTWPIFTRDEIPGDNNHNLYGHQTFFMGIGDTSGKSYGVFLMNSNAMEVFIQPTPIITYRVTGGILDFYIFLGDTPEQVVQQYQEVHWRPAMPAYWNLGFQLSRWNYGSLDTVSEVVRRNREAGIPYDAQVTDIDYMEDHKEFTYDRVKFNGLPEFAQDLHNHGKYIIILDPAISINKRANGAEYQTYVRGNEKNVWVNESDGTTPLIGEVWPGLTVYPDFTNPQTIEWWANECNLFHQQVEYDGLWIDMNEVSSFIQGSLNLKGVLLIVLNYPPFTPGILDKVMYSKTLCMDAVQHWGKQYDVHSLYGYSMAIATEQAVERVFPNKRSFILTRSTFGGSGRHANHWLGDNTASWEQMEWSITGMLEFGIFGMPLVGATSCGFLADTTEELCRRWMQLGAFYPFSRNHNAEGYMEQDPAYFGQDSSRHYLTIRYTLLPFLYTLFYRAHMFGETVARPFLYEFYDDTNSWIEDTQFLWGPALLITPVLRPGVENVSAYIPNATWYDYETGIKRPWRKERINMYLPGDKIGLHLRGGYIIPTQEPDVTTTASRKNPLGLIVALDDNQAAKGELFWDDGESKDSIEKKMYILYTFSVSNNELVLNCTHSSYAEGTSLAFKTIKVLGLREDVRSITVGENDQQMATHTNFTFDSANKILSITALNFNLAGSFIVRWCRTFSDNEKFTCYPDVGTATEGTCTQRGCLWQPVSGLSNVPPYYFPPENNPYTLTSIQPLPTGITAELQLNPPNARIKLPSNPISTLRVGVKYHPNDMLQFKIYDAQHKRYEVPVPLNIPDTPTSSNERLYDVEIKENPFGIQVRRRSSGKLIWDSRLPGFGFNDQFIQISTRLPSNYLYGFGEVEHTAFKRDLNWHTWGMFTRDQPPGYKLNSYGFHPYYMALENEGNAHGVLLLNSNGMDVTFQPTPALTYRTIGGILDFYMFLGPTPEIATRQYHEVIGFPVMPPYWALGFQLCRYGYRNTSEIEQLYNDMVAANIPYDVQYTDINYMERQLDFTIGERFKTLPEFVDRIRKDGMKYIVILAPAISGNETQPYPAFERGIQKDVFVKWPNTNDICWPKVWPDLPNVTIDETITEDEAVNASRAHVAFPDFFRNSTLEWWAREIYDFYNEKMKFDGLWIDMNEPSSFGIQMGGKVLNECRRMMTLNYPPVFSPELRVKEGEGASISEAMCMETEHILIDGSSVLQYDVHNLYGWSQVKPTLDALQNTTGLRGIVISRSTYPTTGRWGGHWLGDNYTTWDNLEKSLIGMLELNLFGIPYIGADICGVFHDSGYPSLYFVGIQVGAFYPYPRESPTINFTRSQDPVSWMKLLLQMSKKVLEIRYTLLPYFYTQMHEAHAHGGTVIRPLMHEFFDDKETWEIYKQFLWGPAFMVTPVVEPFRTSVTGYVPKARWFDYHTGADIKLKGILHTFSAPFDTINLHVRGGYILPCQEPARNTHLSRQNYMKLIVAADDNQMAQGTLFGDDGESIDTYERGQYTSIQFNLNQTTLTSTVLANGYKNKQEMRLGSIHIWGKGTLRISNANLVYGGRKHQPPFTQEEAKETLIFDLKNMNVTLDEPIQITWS

For the compound `[N-]=[N+]=Nc1ccc(NCCCCCCN[C@H]2C[C@](O)(CO)[C@@H](O)[C@H](O)[C@H]2O)c([N+](=O)[O-])c1` [Compound 2, (1S,2S,3R,4S,5S)-5-((6-((4-azido-2-nitrophenyl)amino)hexyl)amino)-1-(hydroxymethyl)cyclohexane-1,2,3,4-tetraol], the IC50 on recombinant human GBA was 139 µM; against rat maltase it was 0.00165 µM; against rat sucrase, below 0.0333 µM.

On to `COCCCCCCCCCN[C@H]1C[C@](O)(CO)[C@@H](O)[C@H](O)[C@H]1O` [Compound 3, (1S,2S,3R,4S,5S)-1-(hydroxymethyl)-5-((9-methoxynonyl)amino)cyclohexane-1,2,3,4-tetraol], for which the half-maximal inhibitory concentration (IC50) on recombinant human GBA is above 1000 µM; at rat maltase, 0.102 µM; at rat sucrase it was 0.116 µM.

Regarding `O=[N+]([O-])c1cc(-n2cnnn2)ccc1NCCCCCCN[C@H]1C[C@](O)(CO)[C@@H](O)[C@H](O)[C@H]1O` [Compound 4, (1S,2S,3R,4S,5S)-1-(hydroxymethyl)-5-((6-((2-nitro-4-(1H-tetrazol-1-yl)phenyl)amino)hexyl)amino)cyclohexane-1,2,3,4-tetraol], the IC50 is above 1000 µM on recombinant human GBA, 0.512 µM at rat maltase and 2.93 µM at rat sucrase.

`O=[N+]([O-])c1cc(-n2nccn2)ccc1NCCCCCCN[C@H]1C[C@](O)(CO)[C@@H](O)[C@H](O)[C@H]1O` [Compound 5, (1S,2S,3R,4S,5S)-1-(hydroxymethyl)-5-((6-((2-nitro-4-(2H-1,2,3-triazol-2-yl)phenyl)amino)hexyl)amino)cyclohexane-1,2,3,4-tetraol]: the half-maximal inhibitory concentration (IC50) was 143 µM on recombinant human GBA, below 0.0333 µM against rat maltase and 0.0342 µM on rat sucrase.

`O=[N+]([O-])c1cc(-n2ccnn2)ccc1NCCCCCCN[C@H]1C[C@](O)(CO)[C@@H](O)[C@H](O)[C@H]1O` [Compound 6, (1S,2S,3R,4S,5S)-1-(hydroxymethyl)-5-((6-((2-nitro-4-(1H-1,2,3-triazol-1-yl)phenyl)amino)hexyl)amino)cyclohexane-1,2,3,4-tetraol]: the half-inhibitory concentration (IC50) is 776 µM on recombinant human GBA, below 0.0333 µM at rat maltase and 0.0674 µM against rat sucrase.

Take `O=[N+]([O-])c1cc(-c2ncccn2)ccc1NCCCCCCN[C@H]1C[C@](O)(CO)[C@@H](O)[C@H](O)[C@H]1O` [Compound 7, (1S,2S,3R,4S,5S)-1-(hydroxymethyl)-5-((6-((2-nitro-4-(pyrimidin-2-yl)phenyl)amino)hexyl)amino)cyclohexane-1,2,3,4-tetraol]: the IC50 is above 1000 µM on recombinant human GBA and 0.00814 µM against rat maltase.

For `[N-]=[N+]=Nc1ccc(NCCCCN[C@H]2C[C@](O)(CO)[C@@H](O)[C@H](O)[C@H]2O)c([N+](=O)[O-])c1` [Compound 8, (1S,2S,3R,4S,5S)-5-((4-((4-azido-2-nitrophenyl)amino)butyl)amino)-1-(hydroxymethyl)cyclohexane-1,2,3,4-tetraol], the results for the IC50 at recombinant human GBA and on rat maltase were above 1000 µM and 0.0053 µM, respectively.

Consider `[N-]=[N+]=Nc1ccc(NCCCCCN[C@H]2C[C@](O)(CO)[C@@H](O)[C@H](O)[C@H]2O)c([N+](=O)[O-])c1` [Compound 9, (1S,2S,3R,4S,5S)-5-((5-((4-azido-2-nitrophenyl)amino)pentyl)amino)-1-(hydroxymethyl)cyclohexane-1,2,3,4-tetraol], for which the IC50 at recombinant human GBA was found to be 103 µM; at rat maltase it was 0.00486 µM; on rat sucrase, 0.0112 µM.

For `[N-]=[N+]=Nc1ccc(NCCOCCN[C@H]2C[C@](O)(CO)[C@@H](O)[C@H](O)[C@H]2O)c([N+](=O)[O-])c1` [Compound 10, (1S,2S,3R,4S,5S)-5-((2-(2-((4-azido-2-nitrophenyl)amino)ethoxy)ethyl)amino)-1-(hydroxymethyl)cyclohexane-1,2,3,4-tetraol], the IC50 is above 1000 µM at recombinant human GBA and 0.0261 µM against rat maltase.

With `O=C(O)CCCCN[C@H]1C[C@](O)(CO)[C@@H](O)[C@H](O)[C@H]1O` [Compound 11, 5-(((1S,2S,3R,4S,5S)-2,3,4,5-tetrahydroxy-5-(hydroxymethyl)cyclohexyl)amino)pentanoic acid], the concentration for half-maximal inhibition (IC50) was above 1000 µM on recombinant human GBA, 7.58 µM against rat maltase and 3.16 µM at rat sucrase.

For `N[C@H]1C[C@](O)(CO)[C@@H](O)[C@H](O)[C@H]1O` [Valiolamine], the IC50 at recombinant human GBA is above 1000 µM; at rat maltase, 1.3 µM; on rat sucrase, 0.334 µM.
